Reference: patent US20020137929A1, “1 - (3-heterocyclylphenyl) isothiourea, -isourea, -guanidine and -amidine herbicidal agents” (Intellectual Property Department, BASF Aktiengesellschaft, priority 1998, published 2002)

What was measured:
[1] = test system: TRZAWR (Wheat, Winter, cv Riband); experiment: Postemergence herbicidal evaluation; assay type: in vivo, Triticum aestivum; conditions: postemergence
Procedure, shortened: (§1)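 Compound is applied as a foliar spray to seedlings about two weeks old, formulated in equal parts acetone and water with 0.5% TWEEN 20 and delivered at 40 psi to give about 0.0156–0.500 kg per hectare. Injury is rated visually 0–9 after four to five weeks.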

[2] = test system: GALAP (Galium); experiment: Preemergence herbicidal evaluation; assay type: in vivo, Galium aparine; conditions: rated 4-5 weeks after treatment
Procedure, shortened: (§2)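 Steps: mix seeds into potting soil; plant atop ~1 inch soil; spray compound in aqueous acetone (~0.0156-0.500 kg/ha equivalent); maintain in greenhouse with watering; rate visually 0-9 versus control at 4-5 weeks.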

[3] = test system: IPOHE (Morningglory, Ivyleaf); experiment: Postemergence herbicidal evaluation; assay type: in vivo, Ipomoea hederacea; conditions: postemergence
Procedure, shortened: as §1

[4] = test system: SETVI (Foxtail, Green); experiment: Postemergence herbicidal evaluation; assay type: in vivo, Setaria viridis; conditions: postemergence
Procedure, shortened: as §1

[5] = test system: CASOB (Sicklepod); experiment: Postemergence herbicidal evaluation; assay type: in vivo, Cassia obtusifolia; conditions: postemergence
Procedure, shortened: as §1

[6] = test system: TRZAWR (Wheat, Winter, cv Riband); experiment: Preemergence herbicidal evaluation; assay type: in vivo, Triticum aestivum; conditions: rated 4-5 weeks after treatment
Procedure, shortened: as §2

[7] = test system: AMBEL (Ragweed, Common); experiment: Postemergence herbicidal evaluation; assay type: in vivo, Ambrosia artemisifolia; conditions: postemergence
Procedure, shortened: as §1

[8] = test system: ORYSAT (Rice, Tebonnet); experiment: Postemergence herbicidal evaluation; assay type: in vivo, Oryza sativa, (L.) Tebonnet; conditions: postemergence
Procedure, shortened: as §1

[9] = test system: ECHCG (Barnyardgrass); experiment: Preemergence herbicidal evaluation; assay type: in vivo, Echinochloa crus-galli; conditions: rated 4-5 weeks after treatment
Procedure, shortened: as §2

[10] = test system: ZEAMX (Corn, Field); experiment: Postemergence herbicidal evaluation; assay type: in vivo, Zea mays; conditions: postemergence
Procedure, shortened: as §1

[11] = test system: GALAP (Galium); experiment: Postemergence herbicidal evaluation; assay type: in vivo, Galium aparine; conditions: postemergence
Procedure, shortened: as §1

[12] = test system: CASOB (Sicklepod); experiment: Preemergence herbicidal evaluation; assay type: in vivo, Cassia obtusifolia; conditions: rated 4-5 weeks after treatment
Procedure, shortened: as §2

[13] = test system: AMBEL (Ragweed, Common); experiment: Preemergence herbicidal evaluation; assay type: in vivo, Ambrosia artemisifolia; conditions: rated 4-5 weeks after treatment
Procedure, shortened: as §2

[14] = test system: SETVI (Foxtail, Green); experiment: Preemergence herbicidal evaluation; assay type: in vivo, Setaria viridis; conditions: rated 4-5 weeks after treatment
Procedure, shortened: as §2

[15] = test system: CHEAL (Lambsquarters, Common); experiment: Preemergence herbicidal evaluation; assay type: in vivo, Chenopodium album; conditions: rated 4-5 weeks after treatment
Procedure, shortened: as §2

[16] = test system: ECHORC (Watergrass (Calif.)); experiment: Preemergence weed control under flooded paddy conditions; assay type: in vivo, Echinochloa oryzoides; conditions: rated 3-4 weeks after treatment
Procedure, shortened: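 Visual injury scored 0-9 against control three to four weeks post-treatment, greenhouse-grown. Application: acetone/water (50/50) solutions dosed directly into flood water (1.5-3 cm over silt loam, planted top 0.5 cm), roughly 0.0313 to 0.500 kg/ha active ingredient.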

[17] = test system: SAGPY (Arrowhead (Pygmaea)); experiment: as above; assay type: in vivo, Sagittaria pygmaea; conditions: rated 3-4 weeks after treatment
Procedure, shortened: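 Ratings on a 0-9 visual scale cover stand, vigor, malformation, size, chlorosis and overall appearance relative to a control, taken three to four weeks post-treatment. Application was into flood water over freshly sown silt loam at roughly 0.0313 to 0.500 kg/ha.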

C#CCOC(=O)CN1C(=O)CSC1=Nc1cc(-n2c(=O)cc(C(F)(F)F)n(C)c2=O)c(F)cc1Cl [Compound 115, 2-Propynyl 2-{{2-chloro-5-[3,6-dihydro-3-methyl-2,6-dioxo-4-(trifluoromethyl)-1(2H)-pyrimidinyl]-4-fluorophenyl}imino}-4-oxo-3-thiazolidineacetate]
Herbicidal rating TRZAWR ([1]; rate 0.0158 kg/ha): 1.5
Herbicidal rating TRZAWR ([1]; rate 0.0315 kg/ha): 2.5
Herbicidal rating TRZAWR ([1]; rate 0.0630 kg/ha): 3.0
Preemergence herbicidal rating GALAP ([2]; rate 0.0156 kg/ha): 1.0
Preemergence herbicidal rating GALAP ([2]; rate 0.0313 kg/ha): 3.0
Preemergence herbicidal rating GALAP ([2]; rate 0.0625 kg/ha): 3.0
Preemergence herbicidal rating GALAP ([2]; rate 0.1250 kg/ha): 7.0
Preemergence herbicidal rating GALAP ([2]; rate 0.2500 kg/ha): 9.0
Herbicidal rating IPOHE ([3]; rate 0.0158 kg/ha): 9.0
Herbicidal rating IPOHE ([3]; rate 0.0315 kg/ha): 9.0
Herbicidal rating IPOHE ([3]; rate 0.0630 kg/ha): 9.0
Herbicidal rating SETVI ([4]; rate 0.0158 kg/ha): 0.0
Herbicidal rating SETVI ([4]; rate 0.0315 kg/ha): 4.0
Herbicidal rating SETVI ([4]; rate 0.0630 kg/ha): 9.0
Herbicidal rating CASOB ([5]; rate 0.0158 kg/ha): 0.0
Herbicidal rating CASOB ([5]; rate 0.0315 kg/ha): 1.0
Herbicidal rating CASOB ([5]; rate 0.0630 kg/ha): 1.0
Preemergence herbicidal rating TRZAWR ([6]; rate 0.0156 kg/ha): 0.0
Preemergence herbicidal rating TRZAWR ([6]; rate 0.0313 kg/ha): 0.0
Preemergence herbicidal rating TRZAWR ([6]; rate 0.0625 kg/ha): 0.0
Preemergence herbicidal rating TRZAWR ([6]; rate 0.1250 kg/ha): 0.0
Preemergence herbicidal rating TRZAWR ([6]; rate 0.2500 kg/ha): 4.0
Herbicidal rating AMBEL ([7]; rate 0.0158 kg/ha): 1.0
Herbicidal rating AMBEL ([7]; rate 0.0315 kg/ha): 6.0
Herbicidal rating AMBEL ([7]; rate 0.0630 kg/ha): 7.0
Herbicidal rating ORYSAT ([8]; rate 0.0158 kg/ha): 1.5
Herbicidal rating ORYSAT ([8]; rate 0.0315 kg/ha): 2.0
Herbicidal rating ORYSAT ([8]; rate 0.0630 kg/ha): 2.5
Preemergence herbicidal rating ECHCG ([9]; rate 0.0156 kg/ha): 0.0
Preemergence herbicidal rating ECHCG ([9]; rate 0.0313 kg/ha): 0.0
Preemergence herbicidal rating ECHCG ([9]; rate 0.0625 kg/ha): 0.0
Preemergence herbicidal rating ECHCG ([9]; rate 0.1250 kg/ha): 0.0
Preemergence herbicidal rating ECHCG ([9]; rate 0.2500 kg/ha): 0.0
Herbicidal rating ZEAMX ([10]; rate 0.0158 kg/ha): 5.0
Herbicidal rating ZEAMX ([10]; rate 0.0315 kg/ha): 6.5
Herbicidal rating ZEAMX ([10]; rate 0.0630 kg/ha): 7.0
Herbicidal rating GALAP ([11]; rate 0.0158 kg/ha): 0.0
Herbicidal rating GALAP ([11]; rate 0.0315 kg/ha): 0.0
Herbicidal rating GALAP ([11]; rate 0.0630 kg/ha): 2.0
Preemergence herbicidal rating CASOB ([12]; rate 0.0156 kg/ha): 2.0
Preemergence herbicidal rating CASOB ([12]; rate 0.0625 kg/ha): 0.0
Preemergence herbicidal rating CASOB ([12]; rate 0.1250 kg/ha): 4.0
Preemergence herbicidal rating CASOB ([12]; rate 0.2500 kg/ha): 2.0
Preemergence herbicidal rating AMBEL ([13]; rate 0.0156 kg/ha): 0.0
Preemergence herbicidal rating AMBEL ([13]; rate 0.0313 kg/ha): 0.0
Preemergence herbicidal rating AMBEL ([13]; rate 0.0625 kg/ha): 0.0
Preemergence herbicidal rating AMBEL ([13]; rate 0.1250 kg/ha): 0.0
Preemergence herbicidal rating AMBEL ([13]; rate 0.2500 kg/ha): 1.0
Preemergence herbicidal rating SETVI ([14]; rate 0.0156 kg/ha): 1.0
Preemergence herbicidal rating SETVI ([14]; rate 0.0313 kg/ha): 0.0
Preemergence herbicidal rating SETVI ([14]; rate 0.0625 kg/ha): 0.0
Preemergence herbicidal rating SETVI ([14]; rate 0.1250 kg/ha): 0.0
Preemergence herbicidal rating SETVI ([14]; rate 0.2500 kg/ha): 4.0
Preemergence herbicidal rating CHEAL ([15]; rate 0.0313 kg/ha): 5.0
Preemergence herbicidal rating CHEAL ([15]; rate 0.0625 kg/ha): 7.0
Preemergence herbicidal rating CHEAL ([15]; rate 0.1250 kg/ha): 9.0
Preemergence herbicidal rating CHEAL ([15]; rate 0.2500 kg/ha): 9.0
ECHORC herbicidal effect rating ([16]; 0.0313 kg/ha): 4.0
ECHORC herbicidal effect rating ([16]; 0.0625 kg/ha): 4.0
ECHORC herbicidal effect rating ([16]; 0.1250 kg/ha): 5.0
ECHORC herbicidal effect rating ([16]; 0.2500 kg/ha): 5.0
SAGPY herbicidal effect rating ([17]; 0.0313 kg/ha): 2.0
SAGPY herbicidal effect rating ([17]; 0.0625 kg/ha): 3.0
SAGPY herbicidal effect rating ([17]; 0.1250 kg/ha): 5.0
SAGPY herbicidal effect rating ([17]; 0.2500 kg/ha): 6.0
